Experimental findings from PubChem BioAssay (NCI) are described below.

What all share (assay): growth of human tumour cells (NCI), 48 h
Test [1] concerns NCI-H460 lung.
The test system of test [2] is K-562 leukemia.
In test [3] the test system is ACHN renal.
Test [4] concerns KM12 colon.
The test system of test [5] is SF-295 CNS.
For test [6], the system named is IGROV1 ovarian.
Test [7] deals with HCC-2998 colon.
Test [8] has as its system SF-539 CNS.

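Results reflect a 48-hour exposure of cells in 96-well plates to compound at five concentrations. Abbreviation: GI50, concentration required for 50% inhibition of growth. TGI: concentration producing complete growth inhibition.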

In the case of `CC1(C)CC2CC(C)(CN2c2ncnc3ccc(Br)cc23)C1` (configuration not stated), the GI50 in test [1] is 11.1 µM; in test [2], 1.62 µM; in test [3] it was 14.1 µM; in test [4], 11.1 µM; in test [5] it was 3.34 µM; in test [6], 10.9 µM. Besides, in test [7], the GI50 was 11.7 µM. Besides, the TGI in test [1] turned out to be 35.2 µM; in test [2], 6.79 µM; in test [3] it was 27 µM; in test [4], 26.5 µM; in test [5], 16.3 µM; in test [6] it was 22.8 µM. The same compound yielded a TGI in test [7] of 23.9 µM.

For the compound `CS[C@@]1(C(=O)Nc2ccc3[nH]nc(-c4ccc(OC(C)C)nc4)c3c2)CCN(CC(=O)N2CC=C(c3ccc(-c4ncn(C)n4)cc3)CC2)C1`, the GI50 in test [1] was more than 100 µM; in test [8], more than 100 µM; in test [2], 2.24 µM; in test [3], 37.8 µM; in test [4] it was 0.929 µM; in test [5], more than 27.3 µM. For the same compound, the GI50 in test [6] was 0.271 µM; in test [7] it was 0.131 µM. In addition, the TGI in test [1], in test [8], in test [2], in test [3], in test [4] and in test [5] was more than 100 µM each time. Also, the TGI in test [6] and in test [7] was more than 100 µM in each case.

`O=C(CC1(O)C(=O)Nc2c(Cl)ccc(Cl)c21)c1ccc(C2CC2)cc1` (configuration not stated): the GI50 in test [1] is 0.622 µM; in test [8], 0.751 µM; in test [2], 0.152 µM; in test [3], 2.19 µM; in test [4], 0.445 µM; in test [5], 0.44 µM. In addition, the GI50 was 1.5 µM in test [6] and 1.85 µM in test [7]. Also, the TGI in test [1] is 9 µM; in test [8] it was 5.79 µM; in test [3] it was 20.2 µM; in test [4], 15.9 µM; in test [5] it was 4.32 µM; in test [6] it was 18.2 µM. In test [7], this compound came in with a TGI of 18.2 µM.

As for `COc1cc(C2C(C#N)=C(N)Oc3cc4c(cc32)OCO4)cc2c1OCO2` (configuration not stated), the GI50 in test [1] was 0.34 µM; in test [8], 0.279 µM; in test [2] it was 0.068 µM; in test [3] it was 2.3 µM; in test [4], 0.206 µM; in test [5], 0.209 µM. The GI50 in test [6] was 0.724 µM; in test [7], 0.352 µM. The TGI in test [1] was 26.2 µM; in test [2], more than 100 µM; in test [3] it was more than 100 µM; in test [4], more than 46.6 µM; in test [5], more than 100 µM; in test [6], more than 100 µM. The compound further showed a TGI in test [7] of 6.11 µM.

For `COc1cc(/C=C/C(=O)c2ccc(Nc3nc(Nc4ccccc4)nc(Nc4ccc(Cl)cc4)n3)cc2)cc(OC)c1OC`, the GI50 in test [1] is 8.71 µM; in test [8], 6.84 µM; in test [2] it was 4.18 µM; in test [3], 10.8 µM; in test [4] it was 8.83 µM; in test [5] it was 7.22 µM. Besides, the GI50 in test [6] is 8.17 µM; in test [7], more than 32.5 µM. Further, the TGI in test [1] was more than 32.5 µM; in test [8], 16.2 µM; in test [2], more than 32.5 µM; in test [3] it was more than 32.5 µM; in test [4], more than 32.5 µM; in test [5], more than 32.5 µM. The TGI in test [6] and in test [7] was more than 32.5 µM in each case.

Consider `C=C(C)[C@@H]1CC[C@]2(C)[C@H](C=CC3=C4C[C@@](C)(CO)CC[C@]4(C)CC[C@]32C)[C@@]1(C)CCCN`, for which the GI50 in test [1] is 1.71 µM; in test [8] it was 1.73 µM; in test [2], 1.8 µM; in test [3] it was 1.76 µM; in test [4], 1.6 µM; in test [5], 1.78 µM. Further, the GI50 in test [6] is 1.5 µM; in test [7], 0.793 µM. Further, the TGI was 3.33 µM in test [1]; 3.13 µM in test [8]; 5.04 µM in test [2]; 3.14 µM in test [3]; 3.02 µM in test [4]; 3.21 µM in test [5]. Further, the values for the TGI in test [6] and in test [7] were 2.95 µM and 2.14 µM, respectively.

`COc1ccc(NC(=O)O[C@H]2[C@H](O[C@H]3[C@@H](O)COC(O[C@H]4C[C@H]5[C@@H]6CC=C7C[C@@H](O)CC[C@]7(C)[C@H]6CC[C@]5(C)[C@H]4[C@H](C)C(=O)CCC(C)C)[C@@H]3OC(C)=O)OC[C@@H](O)[C@@H]2O)cc1` (some centres not stated): the GI50 in test [1] is less than 0.01 µM; in test [8], less than 0.01 µM; in test [2], less than 0.01 µM; in test [3] it was 0.118 µM; in test [4] it was 0.0323 µM; in test [5], less than 0.01 µM. For the same compound, the GI50 is 0.0331 µM in test [6] and 0.566 µM in test [7]. Moreover, the TGI is 1.76 µM in test [1]; 0.0124 µM in test [8]; 19.6 µM in test [2]; more than 100 µM in test [3]; 16.4 µM in test [4]; less than 0.01 µM in test [5]. The TGI in test [6] is more than 100 µM; in test [7] it was 32.7 µM.

In the case of `O=C1CCC(=O)C(C(=O)CCC(=O)Nc2cccc(Cl)c2)C1` (configuration not stated), the TGI in test [1], in test [8], in test [2], in test [3], in test [4] and in test [5] was more than 100 µM throughout. Further, the TGI in test [6] and in test [7] was more than 100 µM each time.

With `O=P1(O)c2ccccc2CS(=O)(=O)Cc2ccccc21`, the TGI in test [1], in test [8], in test [2], in test [3], in test [4] and in test [5] was more than 100 µM in each case. Further, the TGI in test [6] and in test [7] was more than 100 µM each time.

Take `OC(c1ccccc1)c1c(-c2ccccc2)oc(-c2ccccc2)c1C(O)c1ccccc1` (configuration not stated): the TGI in test [1] was found to be 28.8 µM; in test [8], 30.5 µM; in test [2], 13.9 µM; in test [3], 19.1 µM; in test [4], 18.9 µM; in test [5], 29.3 µM. Further, the results for the TGI in test [6] and in test [7] were 28.1 µM and 33 µM, respectively.
